Experimental findings from patent US9371335B2, “Spirothienopyran-piperidine derivatives as ORL-1 receptor antagonists for their use in the treatment of alcohol dependence and abuse” (Eli Lilly and Company, priority 2011, dated 2016) are described below.

SMILES strings stand for the structures.

In the test the test system is Alcohol-Preferring (P) rats. The test can be described thus: Operant ethanol self-administration in P rats (progressive ratio schedule). It is filed as in vivo, rat. The conditions noted are these: for ethanol-motivated responding: P rats on progressive ratio schedule, result in words; for Reduction vs. Vehicle (lever presses) / Mean Number of Lever Presses (Drug-treated): female P rats; for Mean Number of Lever Presses (Drug-treated): 30-min progressive ratio session. The source says: Operant Self-Administration in P rats:
Female P rats are obtained and pair-housed from a private colony (Taconic, Germantown, N.Y.). In order to reduce novelty-induced avoidance of ethanol, the water bottle on the homecage is replaced with a bottle containing 15% ethanol in water (v/v, in water) for two days prior to operant training. Throughout the rest of the experiment, rats receive ad libitum access to water and standard laboratory chow, with no further access to ethanol in the homecage.
Rats are trained to press a lever for ethanol reinforcement in daily 30-min sessions conducted in standard rat operant chambers contained within sound-attenuating chambers (MED Associates, Inc., St. Albans, Vt.). The chambers consist of two stainless steel and two clear Plexiglas walls. The floor grid of the operant chambers consists of 0.5 cm diameter stainless steel bars placed approximately 1.5 cm apart. Each operant chamber contains two retractable operant levers located approximately 6 cm above the grid floor and 13 cm apart. A recessed trough is located in the space between the levers, through which a dipper cup (0.1 mL capacity) is raised to deliver response-contingent ethanol (15%, v/v, in water). Upon a reinforced response, a stimulus light is illuminated above the lever on which the response was made throughout the 4-sec dipper cup access. Operation of the stimuli and behavioral responses are controlled and recorded by personal computer for offline analysis (MED Associates, Inc., St. Albans, Vt.).
During operant training, responses on either lever are considered correct responses and are rewarded with 0.1 mL ethanol reinforcement. […] Once stable baseline responding is reached on an FR-1 schedule of reinforcement, the response contingency is increased to FR-2 and then again to FR-3 so that 3 lever presses are required for each reinforcement. […] Specifically, the response requirement is increased as follows: all rats begin each session at an FR-1 schedule of reinforcement; after three reinforcements, the schedule is increased to FR-2; after three reinforcements at that level, the schedule is increased by two to FR-4; after three reinforcements, the schedule is increased by two to FR-6; and so on (see for e.g. Oster S M, Toalston J E, Kuc K A, Pommer T J, Murphy J M, Lumeng L, Bell R L, McBride W J and Rodd Z A (2006) Effects of multiple alcohol deprivations on operant ethanol self-administration by high-alcohol-drinking replicate rat lines. Alcohol 38:155-164). Each session lasts a total of 30 min, after which, all stimuli are turned off and levers are retracted. […] The amount of ethanol consumed is calculated from the number of active lever presses, and converted into g/kg EtOH consumed. Rats receive oral administration of vehicle or test compound in the dose range of 3, 10, or 30 mg/kg (3 mL/kg dose volume, dissolved in a vehicle consisting of 20% Captisol® in 25 mM phosphate buffer at pH=2), or the nonselective opioid receptor antagonist naltrexone (10 mg/kg) as a positive control, 60 min. prior to the session, using a within-subjects, crossover design (3-4 day washout between subsequent doses). On a separate occasion, rats receive oral administration of vehicle or 30 mg/kg test compound (1 mL/kg dose volume, dissolved in a vehicle consisting of 20% Captisol® in 25 mM phosphate buffer), 30 min prior to the session, using a crossover design.

Turning to `Cc1nn(-c2ncccc2F)cc1CN1CCC2(CC1)OCC(F)(F)c1cc(Cl)sc12` [Compound 2, 2-Chloro-4,4-difluoro-1′-[[1-(3-fluoro-2-pyridyl)-3-methyl-pyrazol-4-yl]methyl]spiro[5H-thieno[2,3-c]pyran-7,4′-piperidine]], the ethanol-motivated responding entry is listed as “reduce ethanol-motivated responding”. Also, where the note is “30 mg/kg oral”, the “Reduction vs. Vehicle (lever presses)” value came out at 61.9% and the “Mean Number of Lever Presses (Drug-treated)” value (“Mean Number of Lever Presses” below) amounted to 143.31.

Consider `Cc1nn(-c2ncccc2CO)cc1CN1CCC2(CC1)OCC(F)(F)c1cc(Cl)sc12` [Compound 1, [2-[4-[(2-chloro-4,4-difluoro-spiro[5H-thieno[2,3-c]pyran-7,4′-piperidine]-1′-yl)methyl]-3-methyl-pyrazol-1-yl]-3-pyridyl]methanol], for which the ethanol-motivated responding entry is on record as “reduce ethanol-motivated responding”. For the same compound, for the setting “3 mg/kg oral”, the “Reduction vs. Vehicle (lever presses)” value is 4.6% and the “Mean Number of Lever Presses” value worked out at 412.58. For the setting “10 mg/kg oral”, the “Reduction vs. Vehicle (lever presses)” value turned out to be 23.7% and the “Mean Number of Lever Presses” value was 330. Also, for the setting “30 mg/kg oral”, the “Reduction vs. Vehicle (lever presses)” value came out at 55.8% and the “Mean Number of Lever Presses” value came to 191.25.
